Results: PubChem BioAssay (NCI)
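Values below derive from 48-hour exposures of cells grown in 96-well plates, with endpoints linearly interpolated between the two concentrations bracketing the appropriate inhibition level. TGI: concentration producing complete growth inhibition.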

Experiments:
Assay in all cases: NCI tumour cell line growth inhibition, 48 h
COLO 205 colon = tested on: COLO 205 colon
SNB-78 CNS = tested on: SNB-78 CNS
NCI-H460 lung = tested on: NCI-H460 lung
HOP-92 NSCLC = tested on: HOP-92 NSCLC
NCI-H226 lung = tested on: NCI-H226 lung
MALME-3M melanoma = tested on: MALME-3M melanoma
KM20L2 colon = tested on: KM20L2 colon
SK-MEL-5 melanoma = tested on: SK-MEL-5 melanoma
SF-539 CNS = tested on: SF-539 CNS
UO-31 renal = tested on: UO-31 renal
HOP-62 NSCLC = tested on: HOP-62 NSCLC
RPMI-8226 leukemia = tested on: RPMI-8226 leukemia
K-562 leukemia = tested on: K-562 leukemia
OVCAR-5 ovarian = tested on: OVCAR-5 ovarian
SF-295 CNS = tested on: SF-295 CNS
IGROV1 ovarian = tested on: IGROV1 ovarian
HCT-116 colon = tested on: HCT-116 colon
SK-MEL-28 melanoma = tested on: SK-MEL-28 melanoma
NCI-H23 lung = tested on: NCI-H23 lung
HOP-18 NSCLC = tested on: HOP-18 NSCLC
CCRF-CEM leukemia = tested on: CCRF-CEM leukemia
DMS 114 small cell lung = tested on: DMS 114 small cell lung
HCC-2998 colon = tested on: HCC-2998 colon
HCT-15 colon = tested on: HCT-15 colon
A498 renal = tested on: A498 renal
RXF 393 renal = tested on: RXF 393 renal
MOLT-4 leukemia = tested on: MOLT-4 leukemia
UACC-62 melanoma = tested on: UACC-62 melanoma
P388 leukemia = tested on: P388 leukemia
DMS 273 small cell lung = tested on: DMS 273 small cell lung
P388/ADR leukemia = tested on: P388/ADR leukemia
NCI/ADR-RES ovarian = tested on: NCI/ADR-RES ovarian
SN12C renal = tested on: SN12C renal
SNB-19 CNS = tested on: SNB-19 CNS
DLD-1 colon = tested on: DLD-1 colon
OVCAR-8 ovarian = tested on: OVCAR-8 ovarian
SN12K1 renal = tested on: SN12K1 renal
U251 CNS = tested on: U251 CNS
NCI-H522 lung = tested on: NCI-H522 lung
SK-OV-3 ovarian = tested on: SK-OV-3 ovarian
SNB-75 CNS = tested on: SNB-75 CNS
XF 498 CNS = tested on: XF 498 CNS
SK-MEL-2 melanoma = tested on: SK-MEL-2 melanoma
LOX IMVI melanoma = tested on: LOX IMVI melanoma
CAKI-1 renal = tested on: CAKI-1 renal
OVCAR-3 ovarian = tested on: OVCAR-3 ovarian
MCF7 breast = tested on: MCF7 breast
SF-268 CNS = tested on: SF-268 CNS
HT29 colon = tested on: HT29 colon
OVCAR-4 ovarian = tested on: OVCAR-4 ovarian
SW-620 colon = tested on: SW-620 colon
A549 NSCLC = tested on: A549 NSCLC
UACC-257 melanoma = tested on: UACC-257 melanoma
M19-MEL melanoma = tested on: M19-MEL melanoma
KM12 colon = tested on: KM12 colon
HL-60(TB) leukemia = tested on: HL-60(TB) leukemia
EKVX NSCLC = tested on: EKVX NSCLC

`CCOC(=O)CNC(=O)NC12CC3CC(CC(C3)C1)C2` was tested, and the TGI (COLO 205 colon) was 363 µM, the TGI (SNB-78 CNS) was > 520 µM and the TGI (NCI-H460 lung) was > 460 µM. The TGI (HOP-92 NSCLC) was 216 µM, the TGI (NCI-H226 lung) was > 473 µM and the TGI (MALME-3M melanoma) was 420 µM. For the same compound, the TGI (KM20L2 colon) was > 550 µM, the TGI (SK-MEL-5 melanoma) was 330 µM and the TGI (SF-539 CNS) was > 550 µM. The TGI (UO-31 renal) was 512 µM, the TGI (HOP-62 NSCLC) was > 502 µM and the TGI (RPMI-8226 leukemia) was > 550 µM. For the same compound, the TGI (K-562 leukemia) was > 550 µM, the TGI (OVCAR-5 ovarian) was > 550 µM and the TGI (SF-295 CNS) was > 550 µM. The TGI (IGROV1 ovarian) was > 550 µM, the TGI (HCT-116 colon) was > 550 µM and the TGI (SK-MEL-28 melanoma) was > 539 µM. The TGI (NCI-H23 lung) was > 515 µM, the TGI (HOP-18 NSCLC) was 537 µM and the TGI (CCRF-CEM leukemia) was > 550 µM. For the same compound, the TGI (DMS 114 small cell lung) was > 511 µM, the TGI (HCC-2998 colon) was 319 µM and the TGI (HCT-15 colon) was > 550 µM. The TGI (A498 renal) was 462 µM, the TGI (RXF 393 renal) was 259 µM and the TGI (MOLT-4 leukemia) was > 550 µM. The TGI (UACC-62 melanoma) was 416 µM, the TGI (P388 leukemia) was 430 µM and the TGI (DMS 273 small cell lung) was > 550 µM. For the same compound, the TGI (P388/ADR leukemia) was > 550 µM, the TGI (NCI/ADR-RES ovarian) was > 550 µM and the TGI (SN12C renal) was > 550 µM. For the same compound, the TGI (SNB-19 CNS) was 548 µM, the TGI (DLD-1 colon) was > 87.2 µM and the TGI (OVCAR-8 ovarian) was > 550 µM. The TGI (SN12K1 renal) was 503 µM, the TGI (U251 CNS) was > 550 µM and the TGI (NCI-H522 lung) was > 536 µM. The TGI (SK-OV-3 ovarian) was > 517 µM, the TGI (SNB-75 CNS) was 408 µM and the TGI (XF 498 CNS) was 246 µM. For the same compound, the TGI (SK-MEL-2 melanoma) was 372 µM, the TGI (LOX IMVI melanoma) was > 550 µM and the TGI (CAKI-1 renal) was > 487 µM. For the same compound, the TGI (OVCAR-3 ovarian) was 398 µM, the TGI (MCF7 breast) was 505 µM and the TGI (SF-268 CNS) was > 550 µM. For the same compound, the TGI (HT29 colon) was > 550 µM, the TGI (OVCAR-4 ovarian) was > 550 µM and the TGI (SW-620 colon) was > 550 µM. For the same compound, the TGI (A549 NSCLC) was > 550 µM, the TGI (UACC-257 melanoma) was 477 µM and the TGI (M19-MEL melanoma) was 369 µM. The TGI (KM12 colon) was > 449 µM, the TGI (HL-60(TB) leukemia) was 543 µM and the TGI (EKVX NSCLC) was > 347 µM.
